Earlier results on four compounds are cited in US8613946B2, “Carotenoids of enhanced bioavailability” (ISP Investment Inc., priority 2006, dated 2013).

Setting [1] is: classification of The Merck Index.

The structures appear in SMILES notation. Read-outs that look alike come from different tables or passages of the source.

Regarding `CC1=C[C@H](O)CC(C)(C)[C@H]1/C=C/C(C)=C/C=C/C(C)=C/C=C/C=C(C)/C=C/C=C(C)/C=C/C1=C(C)C[C@@H](O)CC1(C)C` [lutein], under setting [1], the solubility in water result is recorded as “insoluble in water”.

Consider `CC(C)=CCC/C(C)=C/C=C/C(C)=C/C=C/C(C)=C/C=C/C=C(C)/C=C/C=C(C)/C=C/C=C(\C)CCC=C(C)C` [lycopene], for which, for the setting “statement of The PDR For Nutritional Supplements”, the solubility in water entry was “insoluble in water”.

Regarding `CC1=CCCC(C)(C)C1/C=C/C(C)=C/C=C/C(C)=C/C=C/C=C(C)/C=C/C=C(C)/C=C/C1=C(C)CCCC1(C)C` (stereo not drawn) [α-carotene], the solubility in water entry under setting [1] is “practically insoluble in water”.

Consider `CC1=C(/C=C/C(C)=C/C=C/C(C)=C/C=C/C=C(C)/C=C/C=C(C)/C=C/C2=C(C)CCCC2(C)C)C(C)(C)CCC1` [β-carotene], for which, under setting [1], the solubility in water result is given as “practically insoluble in water”.
